From patent publication US7981886B2, “Antibiotics derivatives” (Actelion Pharmaceutical Ltd., priority 2005, dated 2011)
In brackets after ≈: the same amount, converted by molar mass.

Experiments:
Format in all cases: cell-based
[1] = test system: S. aureus 29213; experiment: MIC by microdilution (NCCLS), S. aureus 29213; settings: Staphylococcus aureus, cation-adjusted Mueller-Hinton Broth, pH 7.2-7.3
Experimental: (§1) These assays have been performed following the description given in “Methods for dilution Antimicrobial Susceptibility Tests for Bacteria that Grow Aerobically, 4th ed.; Approved standard: NCCLS Document M7-A4; National Committee for Clinical Laboratory Standards Villanova, Pa., USA, 1997”. Minimal inhibitory concentrations (MICs; mg/l) were determined in cation-adjusted Mueller-Hinton Broth (BBL) by a microdilution method following NCCLS guidelines (National Committee for Clinical Laboratory Standards. Methods for Dilution Antimicrobial Susceptibility). The pH of the test medium was 7.2-7.3.
(§2) All Examples were tested against several Gram positive and Gram negative bacteria.

[2] = test system: S. aureus A798; experiment: MIC by microdilution (NCCLS), S. aureus A798; settings: Staphylococcus aureus, cation-adjusted Mueller-Hinton Broth, pH 7.2-7.3
Experimental: as §1, §2

[3] = test system: E. faecalis 29212; experiment: MIC by microdilution (NCCLS), E. faecalis 29212; settings: Enterococcus faecalis, cation-adjusted Mueller-Hinton Broth, pH 7.2-7.3
Experimental: as §1, §2

[4] = test system: E. faecium A949; experiment: MIC by microdilution (NCCLS), E. faecium A949; settings: Enterococcus faecium, cation-adjusted Mueller-Hinton Broth, pH 7.2-7.3
Experimental: as §1, §2

[5] = test system: S. pneumoniae 49619; experiment: MIC by microdilution (NCCLS), S. pneumoniae 49619; settings: Streptococcus pneumoniae, cation-adjusted Mueller-Hinton Broth, pH 7.2-7.3
Experimental: as §1, §2

[6] = test system: H influenzae A921; experiment: MIC by microdilution (NCCLS), H influenzae A921; settings: cation-adjusted Mueller-Hinton Broth, pH 7.2-7.3
Experimental: as §1, §2

[7] = test system: M. catarrhalis A894; experiment: MIC by microdilution (NCCLS), M. catarrhalis A894; settings: Moraxella catarrhalis, cation-adjusted Mueller-Hinton Broth, pH 7.2-7.3
Experimental: as §1, §2

[8] = test system: E. coli 25922; experiment: MIC by microdilution (NCCLS), E. coli 25922; settings: Escherichia coli, cation-adjusted Mueller-Hinton Broth, pH 7.2-7.3
Experimental: as §1, §2

[9] = test system: P. aeruginosa 27853; experiment: MIC by microdilution (NCCLS), P. aeruginosa 27853; settings: Pseudomonas aeruginosa, cation-adjusted Mueller-Hinton Broth, pH 7.2-7.3
Experimental: as §1, §2

Structure (SMILES) | MIC [1] | MIC [2] | MIC [3] | MIC [4] | MIC [5] | MIC [6] | MIC [7] | MIC [8] | MIC [9]
O=C1CSc2ccc(CNC3CCC(C(=O)c4nc5ccccc5s4)CC3)cc2N1 (stereo not drawn) [Example 1, 6-{[4-(benzothiazole-2-carbonyl)-cyclohexylamino]-methyl}-4H-benzo[1,4]thiazin-3-one] | 0.25 µg/mL (≈ 0.571 µM) | 0.125 µg/mL (≈ 0.286 µM) | 0.5 µg/mL (≈ 1.14 µM) | 1 µg/mL (≈ 2.29 µM) | 2 µg/mL (≈ 4.57 µM) | 0.063 µg/mL (≈ 0.144 µM) | ≤ 0.031 µg/mL | 0.5 µg/mL (≈ 1.14 µM) | 16 µg/mL (≈ 36.6 µM)
COc1cccc2sc(C(=O)[C@@H]3CC[C@@H](NCc4ccc5c(n4)NC(=O)CS5)CO3)nc12 [Example 29, (3R,6S)-6-{[6-(4-methoxy-benzothiazole-2-carbonyl)-tetrahydro-pyran-3-ylamino]-methyl}-4H-pyrido[3,2-b][1,4]thiazin-3-one] | 1 µg/mL (≈ 2.13 µM) | 2 µg/mL (≈ 4.25 µM) | 2 µg/mL (≈ 4.25 µM) | 1 µg/mL (≈ 2.13 µM) | 4 µg/mL (≈ 8.5 µM) | 2 µg/mL (≈ 4.25 µM) | 0.125 µg/mL (≈ 0.266 µM) | 16 µg/mL (≈ 34 µM) | > 16 µg/mL
COc1cccc2sc(C(=O)[C@H]3CC[C@H](NCc4ccc5c(n4)NC(=O)CS5)CC3)nc12 [Example 23, 6-{[trans-4-(4-methoxy-benzothiazole-2-carbonyl)-cyclohexylamino]-methyl}-4H-pyrido[3,2-b][1,4]thiazin-3-one] | 1 µg/mL (≈ 2.13 µM) | 0.5 µg/mL (≈ 1.07 µM) | 8 µg/mL (≈ 17.1 µM) | 8 µg/mL (≈ 17.1 µM) | 4 µg/mL (≈ 8.54 µM) | 8 µg/mL (≈ 17.1 µM) | 0.25 µg/mL (≈ 0.533 µM) | 16 µg/mL (≈ 34.1 µM) | > 16 µg/mL
Cc1cccc2sc(C(=O)[C@H]3CC[C@H](NCc4ccc5c(c4)NC(=O)CS5)CC3)nc12 [Example 4, 6-{[trans-4-(4-methyl-benzothiazole-2-carbonyl)-cyclohexylamino]-methyl}-4H-benzo[1,4]thiazin-3-one] | 0.125 µg/mL (≈ 0.277 µM) | 0.063 µg/mL (≈ 0.139 µM) | 0.5 µg/mL (≈ 1.11 µM) | 0.25 µg/mL (≈ 0.554 µM) | 1 µg/mL (≈ 2.21 µM) | 0.25 µg/mL (≈ 0.554 µM) | ≤ 0.031 µg/mL | 1 µg/mL (≈ 2.21 µM) | 4 µg/mL (≈ 8.86 µM)
COc1cccc2sc(C(=O)C3CCN(CC(=O)c4ccc5c(c4)NC(=O)CO5)CC3)nc12 [Example 34, 6-{2-[4-(4-methoxy-benzothiazole-2-carbonyl)-piperidin-1-yl]-acetyl}-4H-benzo[1,4]oxazin-3-one] | 1 µg/mL (≈ 2.15 µM) | 2 µg/mL (≈ 4.3 µM) | 16 µg/mL (≈ 34.4 µM) | 4 µg/mL (≈ 8.59 µM) | 16 µg/mL (≈ 34.4 µM) | 2 µg/mL (≈ 4.3 µM) | 0.25 µg/mL (≈ 0.537 µM) | 16 µg/mL (≈ 34.4 µM) | > 16 µg/mL
COc1cccc2sc(O[C@H]3CC[C@H](NCc4ccc5c(c4)NC(=O)CS5)CC3)nc12 [Example 28, 6-{[trans-4-(4-methoxy-benzothiazol-2-yloxy)-cyclohexylamino]-methyl}-4H-benzo[1,4]thiazin-3-one] | 8 µg/mL (≈ 17.6 µM) | 1 µg/mL (≈ 2.19 µM) | 16 µg/mL (≈ 35.1 µM) | 16 µg/mL (≈ 35.1 µM) | 16 µg/mL (≈ 35.1 µM) | 16 µg/mL (≈ 35.1 µM) | 0.125 µg/mL (≈ 0.274 µM) | 16 µg/mL (≈ 35.1 µM) | > 16 µg/mL
